How the values were obtained:
PCP = test: Eurofins panel: PCP (antagonist radioligand); type: binding; settings: compound concentration 1.0E-05 M
[1] = test system: sigma (non-selective) (h); settings: compound concentration 1.0E-05 M
beta1 (h) = beta1 (h) (Homo sapiens, UniProt P08588); settings: 1.0E-05 M; beta1 (h) (agonist radioligand)
cathepsin B (h) = target: T1, cathepsin B (h) (Homo sapiens, UniProt P07858); test: Eurofins panel: cathepsin B (h) enzymatic activity; type: biochemical; settings: 1.0E-05 M; cathepsin B (h)
T1 construct: Eurofins (panel run by the vendor)

PDE4D2 (h) = target: T2, PDE4D2 (h) (Homo sapiens, UniProt Q08499); test: Eurofins panel: PDE4D2 (h); type: biochemical; settings: compound concentration 1.0E-05 M
T2 construct: purchased Eurofins (CNS SafetyScreen panel, contract assay)

5-HT2A (h) = target: T3, 5-HT2A (h) (Homo sapiens, UniProt P28223); test: Eurofins panel: 5-HT2A (h) (agonist radioligand); type: binding; settings: 1.0E-05 M; 5-HT2A (h) (agonist radioligand)
T3 construct: purchased Eurofins (contract screening, CNS SafetyScreen panel)

p38alpha kinase (h) = p38alpha kinase (h) (Homo sapiens, UniProt Q16539); settings: compound concentration 1.0E-05 M
5-HT2C (h) = target: T4, 5-HT2C (h) (Homo sapiens, UniProt P28335); test: Eurofins panel: 5-HT2C (h) (agonist radioligand); type: binding; settings: 1.0E-05 M; 5-HT2C (h) (agonist radioligand)
T4 construct: purchased Eurofins (contract screening, CNS SafetyScreen panel)
T4 sequence (P28335 33-458): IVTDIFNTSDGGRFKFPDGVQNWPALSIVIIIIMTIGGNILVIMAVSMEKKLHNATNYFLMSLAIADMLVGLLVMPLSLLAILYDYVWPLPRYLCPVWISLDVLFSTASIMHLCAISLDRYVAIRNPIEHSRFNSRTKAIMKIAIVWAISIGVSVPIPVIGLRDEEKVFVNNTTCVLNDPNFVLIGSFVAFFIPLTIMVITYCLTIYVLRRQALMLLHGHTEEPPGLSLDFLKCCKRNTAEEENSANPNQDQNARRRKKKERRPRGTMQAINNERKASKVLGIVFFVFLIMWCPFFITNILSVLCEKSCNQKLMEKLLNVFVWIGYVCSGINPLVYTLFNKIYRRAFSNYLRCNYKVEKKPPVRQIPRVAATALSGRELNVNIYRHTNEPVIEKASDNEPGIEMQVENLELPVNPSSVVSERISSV

D2L (h) = D2L (h) (Homo sapiens, UniProt P14416); test: biochemical
JNK1 (h) = JNK1 (h) (Homo sapiens, UniProt P45983); settings: Enzymatic activity; 1.0E-05 M
Y2 (h) = Y2 (h) (Homo sapiens, UniProt P49146); settings: compound concentration 1.0E-05 M
NK1 (h) = NK1 (h) (Homo sapiens, UniProt P25103); settings: compound concentration 1.0E-05 M
[2] = target: human monoamine oxidase-B (MAO-B) (Homo sapiens, UniProt P27338)
human 5-HT2B = target: T5, human 5-HT2B (Homo sapiens, UniProt P41595); test: Eurofins CNS SafetyScreen panel: 5-HT2B (vs ± DOI); type: binding
T5 construct: purchased Eurofins (contract screening, CNS SafetyScreen panel)

ATPase (Na+/K+) = test: Eurofins panel: ATPase (Na+/K+) enzymatic activity; type: biochemical; settings: 1.0E-05 M
A2B (h) = A2B (h) (Homo sapiens, UniProt P29275); test: Eurofins panel: A2B (h) (antagonist radioligand); settings: 1.0E-05 M
H3 (h) = H3 (h) (Homo sapiens, UniProt Q9Y5N1); test: biochemical
EGFR kinase (h) = EGFR kinase (h) (Homo sapiens, UniProt P00533); settings: Enzymatic activity; 1.0E-05 M
CYP2C19 = CYP2C19 (Homo sapiens, UniProt P33261); test: in vitro; settings: human liver microsomes, probe omeprazole
B2 (h) = B2 (h) (Homo sapiens, UniProt P30411); settings: 1.0E-05 M; B2 (h) (agonist radioligand)
D4.4 (h) = D4.4 (h) (Homo sapiens, UniProt P21917); test: biochemical
[3] = target: T6, Glutamate (Non-Selective) Rat Ion Channel Glycine (Strychnine-Insensitive) (Rattus norvegicus, UniProt P35439); test: Glutamate (Non-Selective) Rat Ion Channel Glycine (Strychnine-Insensitive), Mass Spectrometry Binding, assay 5043
T6 construct: Eurofins assay 5043

kappa (h) (KOP) = kappa (h) (KOP) (Homo sapiens, UniProt P41145); test: biochemical; type: binding
[4] = target: GABAA1 (h) (alpha1,beta2,gamma2) (Homo sapiens, UniProt P14867+P47870); test: GABAA1 (h) (alpha1,beta2,gamma2) (agonist radioligand), Eurofins assay 3051
V1a (h) = V1a (h) (Homo sapiens, UniProt P37288); settings: compound concentration 1.0E-05 M
CCK2 (CCKB) (h) = CCK2 (CCKB) (h) (Homo sapiens, UniProt P32239); test: biochemical
kainate = kainate (agonist radioligand), Eurofins assay 65; settings: Specific binding; 1.0E-05 M
delta (DOP) (h) = delta (DOP) (h) (Homo sapiens, UniProt P41143); test: biochemical
Oxytocin (h) = Oxytocin (h) (Homo sapiens, UniProt P30559); settings: compound concentration 1.0E-05 M
alpha2C (h) = alpha2C (h) (Homo sapiens, UniProt P18825); settings: 1.0E-05 M; alpha2C (h) (antagonist radioligand)
98 CNS protein targets = test: Eurofins CNS SafetyScreen panel at 10 μM; type: binding; settings: 10-μM concentration
human recombinant MAO-B = target: T7, human recombinant MAO-B (Homo sapiens, UniProt P27338); test: Eurofins IC50 determination at human recombinant MAO-B; type: binding
T7 construct: purchased Eurofins (contract assay)
T7 sequence (P27338 whole entry): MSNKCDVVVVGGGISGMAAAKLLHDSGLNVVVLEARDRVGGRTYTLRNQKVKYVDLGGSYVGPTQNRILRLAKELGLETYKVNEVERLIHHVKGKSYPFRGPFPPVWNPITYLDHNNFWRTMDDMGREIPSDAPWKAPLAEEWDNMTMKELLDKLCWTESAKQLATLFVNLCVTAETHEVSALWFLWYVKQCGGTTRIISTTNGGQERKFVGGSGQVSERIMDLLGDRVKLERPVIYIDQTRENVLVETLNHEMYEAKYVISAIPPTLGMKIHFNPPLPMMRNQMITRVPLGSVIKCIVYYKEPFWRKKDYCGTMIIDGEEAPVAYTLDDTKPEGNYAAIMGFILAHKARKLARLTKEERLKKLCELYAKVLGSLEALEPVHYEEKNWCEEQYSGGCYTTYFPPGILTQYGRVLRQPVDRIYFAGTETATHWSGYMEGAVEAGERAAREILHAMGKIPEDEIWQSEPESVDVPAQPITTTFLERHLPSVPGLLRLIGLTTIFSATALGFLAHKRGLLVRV

T5 sequence (P41595 whole entry): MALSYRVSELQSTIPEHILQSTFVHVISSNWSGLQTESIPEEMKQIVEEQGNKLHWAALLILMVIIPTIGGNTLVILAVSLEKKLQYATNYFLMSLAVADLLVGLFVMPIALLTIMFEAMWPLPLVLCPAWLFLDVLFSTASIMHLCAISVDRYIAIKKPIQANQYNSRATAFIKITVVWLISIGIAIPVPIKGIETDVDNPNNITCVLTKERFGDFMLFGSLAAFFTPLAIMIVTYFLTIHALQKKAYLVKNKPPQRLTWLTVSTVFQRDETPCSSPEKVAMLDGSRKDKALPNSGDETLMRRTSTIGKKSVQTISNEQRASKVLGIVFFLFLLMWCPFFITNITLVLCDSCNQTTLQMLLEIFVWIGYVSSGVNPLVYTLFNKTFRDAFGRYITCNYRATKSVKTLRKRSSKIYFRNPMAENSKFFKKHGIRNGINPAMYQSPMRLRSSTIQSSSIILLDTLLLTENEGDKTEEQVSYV
Sequence of NK1 (h) (P25103 whole entry): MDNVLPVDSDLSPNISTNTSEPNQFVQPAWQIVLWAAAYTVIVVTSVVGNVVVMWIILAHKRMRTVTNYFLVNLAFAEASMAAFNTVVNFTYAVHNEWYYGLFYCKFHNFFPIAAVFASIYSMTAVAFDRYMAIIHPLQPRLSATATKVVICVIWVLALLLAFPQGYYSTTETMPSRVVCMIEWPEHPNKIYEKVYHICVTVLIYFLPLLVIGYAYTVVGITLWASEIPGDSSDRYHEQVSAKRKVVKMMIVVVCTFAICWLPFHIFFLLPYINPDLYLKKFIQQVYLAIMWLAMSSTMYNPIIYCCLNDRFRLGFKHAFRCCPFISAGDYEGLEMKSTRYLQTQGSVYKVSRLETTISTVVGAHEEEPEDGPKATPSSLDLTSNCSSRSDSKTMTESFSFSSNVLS
Sequence of D4.4 (h) (P21917 whole entry): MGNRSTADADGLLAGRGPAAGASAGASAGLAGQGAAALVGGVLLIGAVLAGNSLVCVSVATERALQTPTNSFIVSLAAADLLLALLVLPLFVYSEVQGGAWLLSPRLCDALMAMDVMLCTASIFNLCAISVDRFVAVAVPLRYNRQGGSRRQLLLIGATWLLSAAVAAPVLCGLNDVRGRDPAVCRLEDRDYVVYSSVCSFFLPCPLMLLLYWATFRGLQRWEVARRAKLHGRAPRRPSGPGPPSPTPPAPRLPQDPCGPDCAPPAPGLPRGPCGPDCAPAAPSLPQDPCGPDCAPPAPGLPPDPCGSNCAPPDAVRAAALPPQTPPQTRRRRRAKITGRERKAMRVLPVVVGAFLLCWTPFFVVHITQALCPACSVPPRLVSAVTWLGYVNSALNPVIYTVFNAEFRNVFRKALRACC
Sequence of Y2 (h) (P49146 whole entry): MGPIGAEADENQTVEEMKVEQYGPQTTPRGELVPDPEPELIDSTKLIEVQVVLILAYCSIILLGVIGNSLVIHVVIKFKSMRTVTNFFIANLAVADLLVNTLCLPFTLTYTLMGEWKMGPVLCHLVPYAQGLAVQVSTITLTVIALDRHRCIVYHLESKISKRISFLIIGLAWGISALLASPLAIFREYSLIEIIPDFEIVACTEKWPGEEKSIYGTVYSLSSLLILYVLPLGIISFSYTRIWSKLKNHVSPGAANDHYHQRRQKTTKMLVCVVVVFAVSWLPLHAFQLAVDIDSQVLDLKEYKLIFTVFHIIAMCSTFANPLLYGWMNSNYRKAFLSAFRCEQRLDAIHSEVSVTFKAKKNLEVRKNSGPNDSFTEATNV
Sequence of CYP2C19 (P33261 whole entry): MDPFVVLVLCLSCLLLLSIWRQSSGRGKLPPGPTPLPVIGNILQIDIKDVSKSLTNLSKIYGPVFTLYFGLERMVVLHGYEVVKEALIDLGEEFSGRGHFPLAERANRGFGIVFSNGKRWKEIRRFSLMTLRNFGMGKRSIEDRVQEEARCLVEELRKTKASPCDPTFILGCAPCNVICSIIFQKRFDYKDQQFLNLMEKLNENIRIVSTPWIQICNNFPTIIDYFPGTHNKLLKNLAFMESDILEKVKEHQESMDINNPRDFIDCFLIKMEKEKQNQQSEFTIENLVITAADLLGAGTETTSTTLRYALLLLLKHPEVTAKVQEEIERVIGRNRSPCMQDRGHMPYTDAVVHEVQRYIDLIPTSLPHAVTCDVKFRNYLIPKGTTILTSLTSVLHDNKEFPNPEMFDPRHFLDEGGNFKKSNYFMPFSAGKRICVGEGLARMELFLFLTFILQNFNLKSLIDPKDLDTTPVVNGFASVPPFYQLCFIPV
Sequence of GABAA1 (h) (alpha1,beta2,gamma2) (P18507 40-475): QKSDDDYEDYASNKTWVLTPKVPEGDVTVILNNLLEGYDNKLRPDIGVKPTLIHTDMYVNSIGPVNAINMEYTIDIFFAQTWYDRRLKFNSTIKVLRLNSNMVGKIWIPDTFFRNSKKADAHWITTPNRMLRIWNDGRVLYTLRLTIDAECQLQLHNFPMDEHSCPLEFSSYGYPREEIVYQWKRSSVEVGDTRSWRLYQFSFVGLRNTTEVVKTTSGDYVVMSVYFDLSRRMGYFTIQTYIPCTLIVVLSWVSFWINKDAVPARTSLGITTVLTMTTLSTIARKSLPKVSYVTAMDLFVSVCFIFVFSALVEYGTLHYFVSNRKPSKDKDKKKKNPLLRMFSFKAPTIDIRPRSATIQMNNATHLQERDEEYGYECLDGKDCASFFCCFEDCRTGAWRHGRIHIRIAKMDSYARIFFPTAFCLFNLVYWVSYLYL
Sequence of GABAA1 (h) (alpha1,beta2,gamma2) (P14867 28-456): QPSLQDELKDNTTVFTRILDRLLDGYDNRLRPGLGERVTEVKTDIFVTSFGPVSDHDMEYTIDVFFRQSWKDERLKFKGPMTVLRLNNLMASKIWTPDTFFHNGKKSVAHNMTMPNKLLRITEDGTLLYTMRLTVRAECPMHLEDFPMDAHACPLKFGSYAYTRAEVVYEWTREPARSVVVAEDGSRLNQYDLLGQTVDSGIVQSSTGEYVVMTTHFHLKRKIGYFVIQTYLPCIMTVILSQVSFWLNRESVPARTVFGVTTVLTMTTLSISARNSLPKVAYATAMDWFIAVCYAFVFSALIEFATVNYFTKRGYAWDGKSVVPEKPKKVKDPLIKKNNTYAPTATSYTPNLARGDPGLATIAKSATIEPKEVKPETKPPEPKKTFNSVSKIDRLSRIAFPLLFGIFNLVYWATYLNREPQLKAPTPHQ
Sequence of GABAA1 (h) (alpha1,beta2,gamma2) (P47870 25-512): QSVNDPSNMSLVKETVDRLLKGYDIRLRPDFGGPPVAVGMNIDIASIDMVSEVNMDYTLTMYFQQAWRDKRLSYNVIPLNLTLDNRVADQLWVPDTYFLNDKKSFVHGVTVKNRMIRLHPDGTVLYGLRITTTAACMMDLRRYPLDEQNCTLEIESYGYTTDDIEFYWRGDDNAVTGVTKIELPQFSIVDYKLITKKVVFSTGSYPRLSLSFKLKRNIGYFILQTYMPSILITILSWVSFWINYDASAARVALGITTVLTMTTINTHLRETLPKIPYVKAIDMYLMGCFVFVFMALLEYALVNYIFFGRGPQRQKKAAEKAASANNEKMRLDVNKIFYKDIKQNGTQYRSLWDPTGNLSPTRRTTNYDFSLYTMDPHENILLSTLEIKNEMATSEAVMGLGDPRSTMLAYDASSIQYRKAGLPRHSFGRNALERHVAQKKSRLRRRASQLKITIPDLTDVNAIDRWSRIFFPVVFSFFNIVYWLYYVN
Sequence of human monoamine oxidase-B (MAO-B) (P27338 whole entry): as the sequence (P27338 whole entry) above
Sequence of kappa (h) (KOP) (P41145 whole entry): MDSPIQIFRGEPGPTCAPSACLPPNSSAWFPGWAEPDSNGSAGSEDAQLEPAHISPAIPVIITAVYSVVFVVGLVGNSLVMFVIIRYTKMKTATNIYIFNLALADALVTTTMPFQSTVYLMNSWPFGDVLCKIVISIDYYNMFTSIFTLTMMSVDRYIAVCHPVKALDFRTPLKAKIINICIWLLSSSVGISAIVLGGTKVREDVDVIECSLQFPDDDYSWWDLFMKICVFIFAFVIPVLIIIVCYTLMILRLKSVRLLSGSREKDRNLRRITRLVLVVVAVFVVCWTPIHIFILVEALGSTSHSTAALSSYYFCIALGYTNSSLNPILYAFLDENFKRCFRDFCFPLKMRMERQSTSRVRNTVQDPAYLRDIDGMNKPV
Sequence of p38alpha kinase (h) (Q16539 whole entry): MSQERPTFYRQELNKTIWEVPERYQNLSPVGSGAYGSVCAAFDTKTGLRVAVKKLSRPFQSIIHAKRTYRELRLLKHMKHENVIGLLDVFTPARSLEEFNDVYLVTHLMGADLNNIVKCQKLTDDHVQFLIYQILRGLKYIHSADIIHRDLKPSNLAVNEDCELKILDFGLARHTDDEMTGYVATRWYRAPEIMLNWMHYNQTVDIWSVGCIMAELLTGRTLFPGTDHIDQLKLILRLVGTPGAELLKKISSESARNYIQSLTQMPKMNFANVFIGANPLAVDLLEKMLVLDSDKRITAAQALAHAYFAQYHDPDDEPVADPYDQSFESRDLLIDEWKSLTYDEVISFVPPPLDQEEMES

Fc1nc(N2CCOCC2)ccc1-c1cc2ccccc2[nH]1 [Compound 75, 4-(6-Fluoro-5-(1H-indol-2-yl)pyridin-2-yl)morpholine]
% Inhibition, Specific binding (PCP): -3.84E+00%
% Inhibition, Specific binding [1]: -4.77E+00%
% Inhibition, Specific binding (beta1 (h)): 12.2039%
% Inhibition, Enzymatic activity (cathepsin B (h)): -8.47E+00%
% Inhibition, Enzymatic activity (PDE4D2 (h)): -7.60E+00%
% Inhibition, Specific binding (5-HT2A (h)): 1.045%
% Inhibition, Enzymatic activity (p38alpha kinase (h)): 10.339%
% Inhibition, Specific binding (5-HT2C (h)): 5.817%
inhibition at 10 µM (D2L (h)): -1.3%
% Inhibition (JNK1 (h)): -3.56E-01%
% Inhibition, Specific binding (Y2 (h)): 3.943%
% Inhibition, Specific binding (NK1 (h)): 21.8946%
inhibition at human MAO-B (vs deprenyl) [2]: 61%
% Inhibition, Specific binding (human 5-HT2B; 1.0E-05 M, 5-HT2B (h) (agonist radioligand)): 44.5993%
inhibition at human 5-HT2B (vs ± DOI) (human 5-HT2B; 10-μM concentration): 44.6%
% Inhibition, Enzymatic activity (ATPase (Na+/K+)): -2.26E+00%
% Inhibition, Specific binding (A2B (h)): -1.19E+01%
inhibition at 10 µM (H3 (h)): -4.9%
% Inhibition (EGFR kinase (h)): 16.5474%
inhibition at 10 µM (CYP2C19): -0.914%
% Inhibition, Specific binding (B2 (h)): -1.15E+01%
inhibition at 10 µM (D4.4 (h)): 20.4%
inhibition at 10 µM [3]: 3.36%
inhibition at 10 µM (kappa (h) (KOP)): 7.11%
inhibition at 10 µM [4]: 7.7%
% Inhibition, Specific binding (V1a (h)): -8.82E-01%
inhibition at 10 µM (CCK2 (CCKB) (h)): 2.96%
% Inhibition (kainate): 7.0556%
inhibition at 10 µM (delta (DOP) (h)): -13.7%
% Inhibition, Specific binding (Oxytocin (h)): 25.3038%
% Inhibition, Specific binding (alpha2C (h)): 4.876%
inhibition at 96 of 98 CNS targets (98 CNS protein targets): ≤ 25.3%
IC50 (human recombinant MAO-B): 3 µM
